The values that follow come from US20190254282A1, “Non-Leaching Surface Sanitizer and Wipe with Improved Washability and/or Absorbency” (Livinguard AG, priority 2016, published 2019).

Holding throughout (type): cell-based
The test system of assay [1] is bacteria (Escherichia coli, Staphylococcus aureus, Pseudomonas aeruginosa, and Salmonella enterica). In words: Antimicrobial performance of treated textiles against bacteria (Experimental Examples 1). As to conditions: 6% o.w.f. of the chemical; for efficiency for killing bacteria: cotton textile treated with one single agent; for efficiency in killing bacteria: polyester textile treated with one single agent. The method, then:
(§1) All microbiological tests were performed with cultures of the bacteria Escherichia coli American Type Culture Collection (ATCC) 25922, Staphylococcus aureus ATCC 6538, Pseudomonas aeruginosa ATCC 15442, Salmonella enterica ATCC 10708, and of the fungi Candida albicans ATCC 10231, and Aspergillus Niger ATCC […].
(§2) With Experimental Examples 1, the effect of the application of different numbers of agents to the starting textile materials was studied. The agents applied to the cotton material were taken from the group of silver, PHMB, and propiconazole, which are the three most preferred antimicrobial agents for treating cellulosic textile materials. The agents applied to the polyester material were taken from the group of silver, propiconazole, and quaternary ammonium organosilane compounds, which are the three most preferred antimicrobial agents for treating synthetic textile materials.
(§3) The textiles were treated with (1) each of the agents from the respective group individually, (2) all three tuple combinations of agents from the respective groups, and (3) all three agents from the respective groups together. The total amount of the chemicals in all experiments was 6% o.w.f. Thus, where one single agent was applied to the textile, 6% o.w.f. of the respective chemical was used, where a combination of two agents was applied, 3% o.w.f. of each of the respective two chemicals was used, and where a combination of three agents was applied, 2% o.w.f. of each of the respective three chemicals was used.
(§4) The finishing process was as described above in the context of the working examples, but since no hydrophilic/stain release agent was applied, there was only one process cycle. The fabric was exhausted and then dried and cured in one single pass through the stenter, with the process parameters as described above.

In assay [2] the test system is fungi (Candida albicans and Aspergillus Niger). In words: Antimicrobial performance of treated textiles against fungi (Experimental Examples 1). The note with it: 6% o.w.f. of the chemical. The protocol: as §1, §2, §3, §4
Assay [3] concerns microorganisms. In words: Tests made by the inventor on alternative metals and azoles adhered to textiles (results not reproduced).
Where [4] appears, read: cotton textile treated with one single agent.
Setting [5] is: polyester textile treated with one single agent.

For propiconazole [reference compound], in assay [1], the “efficiency for killing bacteria” value is reported as “not efficient”; the “efficiency in killing bacteria” value was “about as efficient against bacteria as silver and quaternary ammonium organosilane”. Also, the “efficiency for killing fungi” value in assay [2] (setting [4]) is given as “efficient”. In addition, the “efficiency for killing fungi” value in assay [2] (setting [5]) is reported as “works well”.

Turning to silver, in assay [1], the “efficiency for killing bacteria” value is “about equally efficient”. Further, in assay [1], the “efficiency in killing bacteria” value is given as “about equally efficient”. In addition, the “antimicrobial performance compared with zinc and copper” value in assay [3] is “considerably higher than that of zinc, and even much higher than that of copper”. The “efficiency for killing fungi” value in assay [2] (setting [4]) was “perform poorly”; in assay [2] (setting [5]), “not efficient”.

In the case of `CCCCCCCCCCCCCCCCCC[N+](C)(C)CCC[Si](OC)(OC)OC` [Dimethyloctadecyl[3-(trimethoxysilyepropyl]ammonium chloride], in assay [1], the “efficiency in killing bacteria” value is on record as “about equally efficient”. In addition, the “efficiency for killing fungi” value in assay [2] (setting [5]) is reported as “not efficient”.
